Assays:
[1] = Measurement of particle size, polydispersity index and zeta potential of lipid nanoparticle (Zetasizer); type: physicochemical; conditions: lipid nanoparticle containing siRNA; for Particle size (nm) / PDI: main lipid/DPPC/cholesterol=45/10/45; for Particle size (nm): Z-average in ultrapure water; for PDI: ultrapure water; for Zeta potential (mV): pH 7.4 Tris-HCl
Description: 30 μL of each of the dialyzed lipid nanoparticle-containing solutions obtained by the above operation was measured out, 800 μL of ultrapure water was added to dilute the lipid nanoparticle-containing solution, and the diluted preparation solution was used to measure the particle size (nm) and the polydispersity index (PDI) by using a Zetasizer (manufactured by Malvern Panalytical, Zetasizer nano Ultra). The particle size was evaluated by Z-average in ultrapure water. The zeta potential was measured by using pH 7.4 Tris-HCl as a dilute solution.

[2] = tested on: HT1080-EGFP (human/fibrosarcoma) cells; assay: Evaluation of knockdown effect (GFP assay), Cell experiment 1; type: cell-based; conditions: lipid nanoparticle containing siRNA against EGFP; fluorescence intensity with control cells without lipid nanoparticle set at 100
Description: A cell experiment was carried out by using HT1080-EGFP (human/fibrosarcoma) cells in order to evaluate lipid nanoparticles encapsulating an siRNA produced by using the lipids of the Examples and the Comparative Examples. These cells are cells provided with a green fluorescent protein gene (EGFP). The expression of EGFP can be easily confirmed by measuring the fluorescence intensity of a solution in which the cells are lysed, and thus by acting lipid nanoparticles encapsulating an siRNA that suppresses the expression of EGFP and observing any decrease in fluorescence intensity, the performance of the lipid nanoparticles used can be evaluated. Hereinafter, the procedure of the cell experiment will be shown.
(§1) A. Provision of Cells • (i) A liquid medium (DMEM/Ham's F12, FBS+, P/S+) (FBS: fetal bovine serum, P/S: antibiotic) was taken out from a refrigerator and temperature-controlled in an incubator set at 37° C. • (ii) A cryotube containing the cells was taken out from a −80° C. freezer and thawed at once in an incubator set at 37° C. • (iii) A stock solution of the thawed cells was collected in a capped test tube. • (iv) The tube containing the cells was washed with the liquid medium, and the wash was also collected in the test tube. • (v) The tube was subjected to a centrifuge to precipitate the cells. • (vi) The supernatant was aspirated, and the liquid medium was added and gently tapped to disperse the cells. • (vii) A small amount of the cells-dispersed liquid medium was collected, and the number of cells was observed and counted under a microscope. • (viii) The cells were seeded in a 24-well plate such that the number of cells was 2×10^4 cells per well. For the plate for an LDH assay described later, the cells were seeded in a 96-well plate such that the number of cells was 4×10^3 cells per well. • (ix) The 24-well plate or the 96-well plate was placed in an incubator, and the cells were cultured for 24 hours under conditions of 37° C. and 5% CO2.
(§2) The produced lipid nanoparticles were introduced into cells. • (i) Fetal bovine serum (FBS) was added to a liquid medium (FBS-, P/S-) temperature-controlled as in (i) of A above, in such a way as to reach 10%. • (ii) A 24-well plate was taken out from an incubator, and the liquid medium supernatant in the 24-well plate was aspirated and washed with phosphate buffered saline (PBS). • (iii) 400 μL of the liquid medium produced in (i) above was added to the washed 24-well plate. In addition, 100 μL of an LNP solution having an adjusted concentration was added. • (iv) The 24-well plate was placed in the incubator, and the cells were cultured (for 24 hours). • (v) After 24 hours, the liquid medium supernatant in the 24-well plate was aspirated, and 500 μL of a liquid medium containing 10% FBS (FBS+/P/S+) was added. • (vi) The 24-well plate was placed in the incubator, and the cells were cultured for 24 hours under conditions of 37° C. and 5% CO2.
By carrying out a GFP assay, the EGFP expression level in cells was measured to evaluate the effect of knocking down the green fluorescent protein gene (EGFP) by lipid nanoparticles. • (i) A 24-well plate was taken out from an incubator and washed with PBS. • (ii) A 1% octylglucoside solution to which a protease inhibitor was added was added in order to disrupt cells. Stirring with a pipette lysed the cells. • (iii) The cell lysate was transferred to an Eppendorf tube and subjected to a centrifuge. • (iv) 150 μL of the supernatant was collected and added to a plate for fluorescence measurement. • (v) The fluorescence intensity was measured under conditions of an excitation wavelength of 485 nm and a fluorescence wavelength of 535 nm with a plate reader (manufactured by TECAN, Infinite M200). The fluorescence intensity was calculated with the fluorescence intensity of control cells to which no lipid nanoparticle was added set at 100.

[3] = siRNA / mRNA encapsulation rate of lipid nanoparticle (RiboGreen); type: physicochemical; conditions: siRNA encapsulation rate of lipid nanoparticle
Description: The siRNA encapsulation rate and the mRNA encapsulation rate of the lipid nanoparticle were obtained as follows. First, a surfactant (Sigma-Aldrich, Triton (registered trademark), X-100 (reducing type)) was added to the lipid nanoparticle-containing solution to disrupt the lipid nanoparticle to release the encapsulated siRNA or mRNA. The amounts of the lipid nanoparticle-containing solution and the surfactant were adjusted such that the siRNA or the mRNA was 2 pmol and the surfactant was 1% in 40 μL of the solution after adding the surfactant to the lipid nanoparticle-containing solution. Next, the RiboGreen reagent (reagent that reacts with siRNA to emit fluorescence, manufactured by Thermo Fisher Scientific, Quant-iT (registered trademark) RiboGreen (registered trademark) RNA Assay Kit) was added to the solution, and the fluorescence intensity was measured under conditions of an excitation wavelength of 480 nm and a fluorescence wavelength of 520 nm with a fluorescence intensity meter (manufactured by TECAN, Infinite M200). Specifically, 75 μL of the RiboGreen reagent diluted to 1/2000 was added to a diluted solution obtained by adding 65 μL of citrate buffer to 10 μL of the solution, and the fluorescence intensity was measured. This makes it possible to relatively measure the total amount of the siRNA or the total amount of the mRNA present in the solution.
Subsequently, the RiboGreen reagent was added to the lipid nanoparticle-containing solution without adding a surfactant, and the fluorescence intensity was measured in the same manner with a fluorescence intensity meter. By not adding a surfactant, it is possible to relatively measure the amount of the siRNA or the mRNA free in the solution without being encapsulated in the lipid nanoparticle.
Then, the fluorescence intensity obtained from the solution to which the surfactant was added obtained as described above was fluorescence intensity a, and the fluorescence intensity thus obtained from the solution to which no surfactant was added obtained as described above was fluorescence intensity b, and according to the expression (a−b)/a×100, the siRNA encapsulation rate (%) or the mRNA encapsulation rate (%) of the lipid nanoparticle was obtained. Each of fluorescence intensity a and fluorescence intensity b is a value obtained by subtracting a blank from the arithmetic average value of the results of three measurements for each solution. The blank was measured by carrying out the same operation on a well containing water containing no cell or lipid nanoparticle.

[4] = tested on: HT1080-EGFP (human/fibrosarcoma) cells; assay: Evaluation of toxicity: CCK-8 assay; type: cell-based; conditions: lipid nanoparticle containing siRNA; absorbance relative to control cells without lipid nanoparticle set at 1.00
Description: as §1, §2
For Examples 1 to 9, a CCK-8 assay or an LDH assay was carried out to measure the metabolic activity of viable cells and relatively quantify the number of surviving cells to evaluate the toxicity of lipid nanoparticles.
(a) CCK-8 Assay • (i) Fetal bovine serum (FBS) and a viable cell counting kit (manufactured by DOJINDO LABORATORIES, Cell Count Kit-8) was added to a liquid medium (FBS-, P/S-) temperature-controlled as in (i) of A above, such that FBS was 10% and the kit was 10%. • (ii) A 24-well plate was taken out from an incubator. The liquid medium was removed, and 315 μL of the liquid medium containing the viable cell counting kit produced in (i) above was added. • (iii) The liquid medium was aged for 1 hour in the incubator. • (iv) The 24-well plate was taken out, and the absorbance was measured under conditions of a measurement wavelength of 450 nm and a target wavelength of 630 nm with a plate reader (manufactured by TECAN, Infinite M200). The absorbance was calculated with the absorbance of control cells to which no lipid nanoparticle was added set at 1.00. When the obtained value was 0.80 or more and 1.00 or less, a rating of double-circle (excellent) was given, when the obtained value was 0.50 or more and less than 0.80, a rating of circle (good) was given, when the obtained value was 0.20 or more and less than 0.50, a rating of triangle (fair) was given, and when the obtained value was less than 0.20, a rating of X-mark (poor) was given.

Q: With `CCCCCCCC/C=C\CCCCCCCCC(CCCCCCC/C=C\CCCCCCCC)OC(=O)C(CC(=O)O)NC(=O)C(N)CCCCN` (stereo not drawn) [Example 7, 3-(2,6-diaminohexanamido)-4-(((9Z,27Z)-hexatriaconta-9,27-dien-18-yl)oxy)-4-oxobutanoic acid] as the molecule, how does the “Particle size (nm)” value [1] read?
A: Its value is 94.2 nm.

Q: What about the PDI [1] of the same molecule?
A: The PDI was 0.159.

Q: And the “Zeta potential (mV)” value [1]?
A: The value was 8.28 mV.

Q: What about the “GFP Assay” value [2] of the same molecule?
A: The value was 28.

Q: What about the “Encapsulation rate (%)” value [3] of the same molecule?
A: The value was 100%.

Q: What about the “CCK Assay” value [4] of the same molecule?
A: The value was “◯ (when the obtained value was 0.50 or more and less than 0.80, a rating of circle (good) was given)”.

Q: With `CCCCCCCC/C=C\CCCCCCCCC(CCCCCCC/C=C\CCCCCCCC)OC(=O)C(CCC(=O)O)NC(=O)C(N)CCCCN` (stereo not drawn) [Example 8, 4-(2,6-diaminohexanamido)-5-(((9Z,27Z)-hexatriaconta-9,27-dien-18-yl)oxy)-5-oxopentanoic acid] as the molecule, how does the “Particle size (nm)” value [1] read?
A: Its value is 162.5 nm.

Q: And the PDI [1]?
A: Its PDI is 0.147.

Q: And the “Zeta potential (mV)” value [1]?
A: Its value is 19.1 mV.

Q: What about the “GFP Assay” value [2] of the same molecule?
A: Its value is 47.

Q: And the “Encapsulation rate (%)” value [3]?
A: The value was 100%.

Q: What about the “CCK Assay” value [4] of the same molecule?
A: Its value is “⊚ (When the obtained value was 0.80 or more and 1.00 or less, a rating of double-circle (excellent) was given)”.

Q: Which “Particle size (nm)” value [1] does the source give for `CCCCCCCC/C=C\CCCCCCCCC(CCCCCCC/C=C\CCCCCCCC)OC(=O)C(CCC(=O)O)NC(=O)C(N)Cc1c[nH]cn1` (stereo not drawn) [Example 9, 4-(2-amino-3-(1H-imidazol-4-yl)propanamido)-5-(((9Z,27Z)-hexatriaconta-9,27-dien-18-yl)oxy)-5-oxopentanoic acid] here?
A: Its value is 107.6 nm.

Q: And the PDI [1]?
A: The PDI was 0.093.

Q: And the “Zeta potential (mV)” value [1]?
A: Its value is 24.6 mV.

Q: What about the “GFP Assay” value [2] of the same molecule?
A: Its value is 56.

Q: What about the “Encapsulation rate (%)” value [3] of the same molecule?
A: Its value is 84%.

Q: And the “CCK Assay” value [4]?
A: The value was “⊚ (When the obtained value was 0.80 or more and 1.00 or less, a rating of double-circle (excellent) was given)”.
